Laboratory results: US12600710B2, “Beta-catenin and b-cell lymphoma 9 (BCL9) inhibitors” (H. LEE MOFFITT CANCER CENTER AND RESEARCH INSTITUTE, INC., priority 2018, dated 2026)
Structures can show the parent of a compound that is named as a salt. Where two headings read alike, the source gives them in different places.

Biological target: T1, β-catenin/BCL9 PPI (Homo sapiens, UniProt P35222)
T1 construct: Wild-type full-length β-catenin were cloned into a pET-28b vector carrying a C-terminal 6×histidine; made in house; host or cells: Escherichia coli BL21 DE3 (β-catenin); BCL9 peptide chemically synthesized
T1 sequence (P35222 1-781): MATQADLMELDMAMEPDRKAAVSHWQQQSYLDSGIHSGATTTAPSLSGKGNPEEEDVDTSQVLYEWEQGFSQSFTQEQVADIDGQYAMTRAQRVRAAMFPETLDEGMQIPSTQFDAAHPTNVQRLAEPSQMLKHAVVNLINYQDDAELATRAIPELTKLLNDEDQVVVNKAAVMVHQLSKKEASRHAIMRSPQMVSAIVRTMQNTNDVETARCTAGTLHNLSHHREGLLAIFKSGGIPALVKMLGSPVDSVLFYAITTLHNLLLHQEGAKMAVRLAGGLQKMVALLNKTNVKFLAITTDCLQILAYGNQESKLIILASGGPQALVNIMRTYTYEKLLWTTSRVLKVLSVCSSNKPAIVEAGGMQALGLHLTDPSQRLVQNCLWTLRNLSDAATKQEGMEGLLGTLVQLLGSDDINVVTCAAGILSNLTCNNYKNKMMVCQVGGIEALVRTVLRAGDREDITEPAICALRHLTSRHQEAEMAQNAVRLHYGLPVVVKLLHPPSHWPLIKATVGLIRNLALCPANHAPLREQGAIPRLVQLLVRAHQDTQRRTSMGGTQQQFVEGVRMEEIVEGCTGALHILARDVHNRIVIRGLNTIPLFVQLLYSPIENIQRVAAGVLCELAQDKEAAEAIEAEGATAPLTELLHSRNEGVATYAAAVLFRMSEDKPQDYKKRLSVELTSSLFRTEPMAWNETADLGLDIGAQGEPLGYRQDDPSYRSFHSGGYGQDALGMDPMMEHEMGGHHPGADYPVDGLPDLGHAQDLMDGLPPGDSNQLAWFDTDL
Assay: AlphaScreen competitive inhibition assay of the β-catenin/BCL9 PPI
Type: binding
Details: mean ± SD, triplicate, Ki derived from IC50 (Nikolovska-Coleska method)
Procedure: AlphaScreen competitive inhibition assays. For the competitive inhibition assays of the β-catenin/BCL9 PPI, the negative control (equivalent to 0% inhibition) refers to 5.0 nM of biotinylated BCL9, 40 nM of His6-tagged β-catenin, and 10 μg/mL of donor and acceptor beads in a final volume of 25 μL assay buffer, but no tested inhibitor present. The positive control (equivalent to 100% inhibition) refers to 5.0 nM of biotinylated BCL9 and 10 μg/mL of donor and acceptor beads in a final volume of 25 μL assay buffer.
For the β-catenin/BCL9 assay, 5 nM of biotinylated BCL9 and 40 nM of His6-tagged β-catenin were incubated in assay buffer at 4° C. for 30 min. Different concentrations of the tested inhibitor were added and incubated in 20 μL assay buffer at 4° C. for another 1 h. All of the above assay plates were covered and gently mixed on an orbital shaker. The donor and acceptor beads were then added to the plates to a final concentration of 10 μg/mL in 25 μL assay buffer. The mixture was incubated for 1 h at 4° C. before detection. The IC50 value was determined by nonlinear least-square analysis of GraphPad Prism 5.0. The Ki values were derived from the IC50 values using a method reported by Nikolovska-Coleska et al (Nikolovska-Coleska, Z.; Wang, R.; Fang, X.; Pan, H.; Tomita, Y.; Li, P.; Roller, P. P.; Krajewski, K.; Saito, N. G.; Stuckey, J. A.; Wang, S. Development and optimization of a binding assay for the XIAP BIR3 domain using fluorescence polarization. Anal. Biochem. 2004, 332, 261-273). The assays were conducted under the conditions required by Nikolovska-Coleska et al.'s equation for determining the Ki values. All of the experiments were performed in triplicate. The results were expressed as mean±standard deviation.

[1] = Example 1 compounds, experiment 3, read-out: Ki (μM ± SD) experiment 3
[2] = Example 1 compounds, experiment 4, read-out: Ki (μM ± SD) experiment 4

SMILES: O=C(c1ccc(O[C@H]2CCNC2)c(C2CCCCC2)c1)N1CCC(Oc2cc(F)cc(N3CCNCC3=O)c2)CC1 [Compound 2, (S)-1-(3-((1-(3-cyclohexyl-4-(pyrrolidin-3-yloxy)benzoyl)piperidin-4-yl)oxy)-5-fluorophenyl) piperazin-2-one dihydrochloride]
- Ki (Example 2 compounds, experiment 1, read-out: Ki (μM ± SD) experiment 1): 496 ± 39.7 µM
- Ki (Example 2 compounds, experiment 2, read-out: Ki (μM ± SD) experiment 2): > 90 µM

SMILES: CC(=O)Nc1cc(F)cc(C(=O)N2CCN(C(=O)c3ccc(O[C@H]4CCNC4)c(C4CCCCC4)c3)C(C(=O)NCc3ccccc3)C2)c1 (stereo partly drawn) [Compound 28, 4-(3-Acetamido-5-fluorobenzoyl)-N-benzyl-1-(3-cyclohexyl-4-(((S)-pyrrolidin-3-yl)oxy)benzoyl) piperazine-2-carboxamide trifluoroacetate]
- Ki [1]: 660 ± 110 µM
- Ki [2]: 600 ± 89 µM

SMILES: CC(=O)Nc1cc(F)cc(C(=O)N2CCN(C(=O)c3ccc(O[C@H]4CCNC4)c(C4CCCCC4)c3)C(C(=O)N(C)C(C)C)C2)c1 (stereo partly drawn) [Compound 22, 4-(3-Acetamido-5-fluorobenzoyl)-1-(3-cyclohexyl-4-(((S)-pyrrolidin-3-yl)oxy)benzoyl)-N-isopropyl-N-methylpiperazine-2-carboxamide trifluoroacetate]
- Ki [1]: > 1000 µM
- Ki [2]: > 1000 µM

SMILES: CC(=O)Nc1cc(F)cc(C(=O)N2CCN(C(=O)c3ccc(O[C@H]4CCNC4)c(C4CCCCC4)c3)C(C(=O)N(C)C)C2)c1 (stereo partly drawn) [Compound 18, 4-(3-Acetamido-5-fluorobenzoyl)-1-(3-cyclohexyl-4-(((S)-pyrrolidin-3-yl)oxy)benzoyl)-N,N-dimethylpiperazine-2-carboxamide trifluoroacetate]
- Ki [1]: 73 µM
- Ki [2]: 150 ± 17 µM

SMILES: CC(=O)Nc1cc(F)cc(C(=O)N2CCN(C(=O)c3ccc(O[C@H]4CCNC4)c(C4CCCCC4)c3)C(C(=O)NCCC(C)C)C2)c1 (stereo partly drawn) [Compound 24, 4-(3-Acetamido-5-fluorobenzoyl)-1-(3-cyclohexyl-4-(((S)-pyrrolidin-3-yl)oxy)benzoyl)-N-isopentylpiperazine-2-carboxamide trifluoroacetate]
- Ki [1]: 700 ± 130 µM
- Ki [2]: 540 ± 71 µM

SMILES: CC(=O)Nc1cc(F)cc(C(=O)N2CCN(C(=O)c3ccc(O[C@H]4CCNC4)c(C4CCCCC4)c3)C(C(=O)NC(C)C)C2)c1 (stereo partly drawn) [Compound 21, 4-(3-Acetamido-5-fluorobenzoyl)-1-(3-cyclohexyl-4-(((S)-pyrrolidin-3-yl)oxy)benzoyl)-N-isopropylpiperazine-2-carboxamide trifluoroacetate]
- Ki [1]: 410 ± 41 µM
- Ki [2]: 700 ± 73 µM

SMILES: CNC(=O)C1CN(C(=O)c2cc(F)cc(NC(C)=O)c2)CCN1C(=O)c1ccc(O[C@H]2CCNC2)c(C2CCCCC2)c1 (stereo partly drawn) [Compound 17, 4-(3-Acetamido-5-fluorobenzoyl)-1-(3-cyclohexyl-4-(((S)-pyrrolidin-3-yl)oxy)benzoyl)-N-methylpiperazine-2-carboxamide trifluoroacetate]
- Ki [1]: 200 ± 20 µM
- Ki [2]: 140 ± 17 µM
